Experimental data published in patent US20260262643A1, “HERBICIDAL BENZOXAZINES” (FMC CORPORATION, priority 2022, published 2026).

Assays:
blackgrass [1] = test: Test A preemergence; type: in vivo, Alopecurus myosuroides
Method in brief: (§1)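 Loam/sand soil; pre-em directed soil spray at planting, post-em spray at 1–2 leaf (2–10 cm). Compound in non-phytotoxic solvent + surfactant. Greenhouse 10 d; visual injury vs untreated, 0 = no effect, 100 = complete control.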

foxtail, giant [2] = test: Test A postemergence; type: in vivo, Setaria faberi; conditions: postemergence, 10 days
Method in brief: as §1

oat, wild [3] = test: Test A postemergence; type: in vivo, Avena fatua; conditions: postemergence, 10 days
Method in brief: as §1

barnyardgrass = test: Test B flooded paddy test; type: in vivo, Echinochloa crus-galli; conditions: 250 g ai/ha, Flood, 13 days, 0 to 100 scale (0 no effect, 100 complete control)
Method in brief: (§2)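 Plants at the 2-leaf stage were flooded to 3 cm above the soil, and test compounds were applied directly into the paddy water, with that depth held throughout. After 13 days in a greenhouse, injury was rated visually against untreated controls on a 0–100 scale (100 = complete control).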

ryegrass, Italian [4] = test: Test A preemergence; type: in vivo, Lolium multiflorum
Method in brief: as §1

kochia [5] = test: Test A preemergence; type: in vivo, Bassia scoparia
Method in brief: as §1

foxtail, giant [6] = test: Test A preemergence; type: in vivo, Setaria faberi
Method in brief: as §1

wheat [7] = test: Test A postemergence; type: in vivo, Triticum aestivum; conditions: postemergence, 10 days
Method in brief: as §1

corn [8] = test: Test A postemergence; type: in vivo, Zea mays; conditions: postemergence, 10 days
Method in brief: as §1

wheat [9] = test: Test A preemergence; type: in vivo, Triticum aestivum
Method in brief: as §1

blackgrass [10] = test: Test A postemergence; type: in vivo, Alopecurus myosuroides; conditions: postemergence, 10 days
Method in brief: as §1

sedge, umbrella = test: Test B flooded paddy test; type: in vivo, Cyperus difformis; conditions: 250 g ai/ha, Flood, 13 days, 0 to 100 scale (0 no effect, 100 complete control)
Method in brief: as §2

kochia [11] = test: Test A postemergence; type: in vivo, Bassia scoparia; conditions: postemergence, 10 days
Method in brief: as §1

rice = test: Test B flooded paddy test; type: in vivo, Oryza sativa; conditions: 250 g ai/ha, Flood, 13 days, 0 to 100 scale (0 no effect, 100 complete control)
Method in brief: as §2

ragweed [12] = test: Test A preemergence; type: in vivo, Ambrosia artemisiifolia; conditions: 125 g ai/ha, visual injury after 10 days, 0 to 100 scale, 0 is no effect, 100 is complete control
Method in brief: as §1

soybean [13] = test: Test A postemergence; type: in vivo, Glycine max; conditions: postemergence, 10 days
Method in brief: as §1

oat, wild [14] = test: Test A preemergence; type: in vivo, Avena fatua
Method in brief: as §1

goosegrass [15] = test: Test A preemergence; type: in vivo, Eleusine indica
Method in brief: as §1

ryegrass, Italian [16] = test: Test A postemergence; type: in vivo, Lolium multiflorum; conditions: postemergence, 10 days
Method in brief: as §1

pigweed, palmer [17] = test: Test A postemergence; type: in vivo, Amaranthus palmeri; conditions: postemergence, 10 days
Method in brief: as §1

goosegrass [18] = test: Test A postemergence; type: in vivo, Eleusine indica; conditions: postemergence, 10 days
Method in brief: as §1

horseweed = test: Test A postemergence; type: in vivo, Erigeron canadensis; conditions: postemergence, 10 days
Method in brief: as §1

ducksalad = test: Test B flooded paddy test; type: in vivo, Heteranthera limosa; conditions: 250 g ai/ha, Flood, 13 days, 0 to 100 scale (0 no effect, 100 complete control)
Method in brief: as §2

soybean [19] = test: Test A preemergence; type: in vivo, Glycine max
Method in brief: as §1

corn [20] = test: Test A preemergence; type: in vivo, Zea mays
Method in brief: as §1

ragweed [21] = test: Test A postemergence; type: in vivo, Ambrosia artemisiifolia; conditions: postemergence, 10 days
Method in brief: as §1

pigweed, palmer [22] = test: Test A preemergence; type: in vivo, Amaranthus palmeri
Method in brief: as §1

galium = test: Test A postemergence; type: in vivo, Galium aparine; conditions: postemergence, 10 days
Method in brief: as §1

[23] = 125 g ai/ha, visual injury after 10 days, 0 to 100 scale, 0 is no effect, 100 is complete control
[24] = 500 g ai/ha, 0 to 100 scale (0 no effect, 100 complete control), 10 days
[25] = 125 g ai/ha, 0 to 100 scale, 0 no effect, 100 complete control
[26] = 500 g ai/ha, visual injury, 0 to 100 scale (0 no effect, 100 complete control)

C#CCOc1ccc(-n2cnc(C(C)C)n2)cc1C(=O)N1C[C@H](C)Oc2c(Cl)cccc21 [Compound 107]
Plant response rating, Blackgrass (blackgrass [1]; [23]): 20 | Plant response rating, Blackgrass (blackgrass [1]; [24]): 40 | Foxtail, Giant plant response rating (foxtail, giant [2]; [25]): 90 | Plant response rating, Foxtail, Giant (foxtail, giant [2]; [26]): 100 | Oat, Wild plant response rating (oat, wild [3]; [25]): 30 | Plant response rating, Oat, Wild (oat, wild [3]; [26]): 70 | Plant response rating, Barnyardgrass (barnyardgrass): 70 | Plant response rating, Ryegrass, Italian (ryegrass, Italian [4]; [23]): 80 | Plant response rating, Ryegrass, Italian (ryegrass, Italian [4]; [24]): 100 | Plant response rating, Kochia (kochia [5]; [23]): 20 | Plant response rating, Kochia (kochia [5]; [24]): 80 | Plant response rating, Foxtail, Giant (foxtail, giant [6]; [23]): 100 | Plant response rating, Foxtail, Giant (foxtail, giant [6]; [24]): 100 | Wheat plant response rating (wheat [7]; [25]): 30 | Plant response rating, Wheat (wheat [7]; [26]): 30 | Corn plant response rating (corn [8]; [25]): 70 | Plant response rating, Corn (corn [8]; [26]): 80 | Plant response rating, Wheat (wheat [9]; [23]): 0 | Plant response rating, Wheat (wheat [9]; [24]): 40 | Blackgrass plant response rating (blackgrass [10]; [25]): 60 | Plant response rating, Blackgrass (blackgrass [10]; [26]): 80 | Plant response rating, Sedge, Umbrella (sedge, umbrella): 90 | Kochia plant response rating (kochia [11]; [25]): 80 | Plant response rating, Kochia (kochia [11]; [26]): 90 | Plant response rating, Rice (rice): 20 | Plant response rating, Ragweed (ragweed [12]): 30 | Soybean plant response rating (soybean [13]; [25]): 100 | Plant response rating, Soybean (soybean [13]; [26]): 100 | Plant response rating, Oat, Wild (oat, wild [14]; [23]): 60 | Plant response rating, Oat, Wild (oat, wild [14]; [24]): 70 | Plant response rating, Goosegrass (goosegrass [15]; [23]): 100 | Plant response rating, Goosegrass (goosegrass [15]; [24]): 100 | Ryegrass, Italian plant response rating (ryegrass, Italian [16]; [25]): 20 | Plant response rating, Ryegrass, Italian (ryegrass, Italian [16]; [26]): 60 | Pigweed, Palmer plant response rating (pigweed, palmer [17]; [25]): 90 | Plant response rating, Pigweed, Palmer (pigweed, palmer [17]; [26]): 100 | Goosegrass plant response rating (goosegrass [18]; [25]): 70 | Plant response rating, Goosegrass (goosegrass [18]; [26]): 100 | Horseweed plant response rating (horseweed; [25]): 20 | Plant response rating, Horseweed (horseweed; [26]): 30 | Plant response rating, Ducksalad (ducksalad): 25 | Plant response rating, Soybean (soybean [19]; [23]): 50 | Plant response rating, Soybean (soybean [19]; [24]): 70 | Plant response rating, Corn (corn [20]; [23]): 10 | Plant response rating, Corn (corn [20]; [24]): 50 | Ragweed plant response rating (ragweed [21]; [25]): 50 | Plant response rating, Ragweed (ragweed [21]; [26]): 70 | Plant response rating, Pigweed, Palmer (pigweed, palmer [22]; [23]): 100 | Plant response rating, Pigweed, Palmer (pigweed, palmer [22]; [24]): 100 | Galium plant response rating (galium; [25]): 100 | Plant response rating, Galium (galium; [26]): 100
